Tests used:
ABUTH [1] = assay: Pre-emergence herbicidal action against ABUTH; format: in vivo, Abutilon theophrasti
How it was run: (§1)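 Sandy loam pots, seeds covered with soil, then surface-treated with WP or EC formulations at 600–800 l/ha water plus 0.2% wetting agent. Greenhouse, 3 weeks. Percent damage vs untreated controls.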

VERPE [2] = assay: Post-emergence herbicidal action against VERPE; format: in vivo, Veronica persica
How it was run: (§2)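 Herbicidal action is a visual percentage rating (0% = as untreated control, 100% = plants dead) made roughly 3 weeks after treatment. Plants were grown in sandy loam in the greenhouse and treated at the one-leaf stage, 2 to 3 weeks post-sowing. Treatment was a foliar spray of wettable-powder or emulsion-concentrate formulations at 600 to 800 l/ha water plus 0.2% wetting agent.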

MATIN [3] = assay: Pre-emergence herbicidal action against MATIN; format: in vivo, Matricaria inodora
How it was run: as §1

VIOTR [4] = assay: Post-emergence herbicidal action against VIOTR; format: in vivo, Viola tricolor
How it was run: as §2

PHBPU [5] = assay: Post-emergence herbicidal action against PHBPU; format: in vivo, Pharbitis purpurea
How it was run: as §2

ECHCG [6] = assay: Post-emergence herbicidal action against ECHCG; format: in vivo, Echinochloa crus-galli; conditions: dosage 20 g/ha
How it was run: as §2

AMARE [7] = assay: Post-emergence herbicidal action against AMARE; format: in vivo, Amaranthus retroflexus; conditions: 20 g/ha, visual assessment about 3 weeks after treatment, 100% = plants have died, 0% = like control plants
How it was run: as §2

AMARE [8] = assay: Pre-emergence herbicidal action against AMARE; format: in vivo, Amaranthus retroflexus
How it was run: as §1

DIGSA [9] = assay: Post-emergence herbicidal action against DIGSA; format: in vivo, Digitaria sanguinalis; conditions: 20 g/ha
How it was run: as §2

SETVI [10] = assay: Post-emergence herbicidal action against SETVI; format: in vivo, Setaria viridis
How it was run: as §2

AVEFA = assay: Pre-emergence herbicidal action against AVEFA; format: in vivo, Avena fatua
How it was run: as §1

PHBPU [11] = assay: Pre-emergence herbicidal action against PHBPU; format: in vivo, Pharbitis purpurea; conditions: dosage 80 g/ha
How it was run: as §1

SETVI [12] = assay: Pre-emergence herbicidal action against SETVI; format: in vivo, Setaria viridis
How it was run: as §1

ECHCG [13] = assay: Pre-emergence herbicidal action against ECHCG; format: in vivo, Echinochloa crus-galli; conditions: 80 g/ha
How it was run: as §1

DIGSA [14] = assay: Pre-emergence herbicidal action against DIGSA; format: in vivo, Digitaria sanguinalis
How it was run: as §1

ALOMY [15] = assay: Pre-emergence herbicidal action against ALOMY; format: in vivo, Alopecurus myosuroides
How it was run: as §1

VIOTR [16] = assay: Pre-emergence herbicidal action against VIOTR; format: in vivo, Viola tricolor
How it was run: as §1

LOLRI = assay: Pre-emergence herbicidal action against LOLRI; format: in vivo, Lolium rigidum; conditions: 80 g/ha
How it was run: as §1

MATIN [17] = assay: Post-emergence herbicidal action against MATIN; format: in vivo, Matricaria inodora
How it was run: as §2

ALOMY [18] = assay: Post-emergence herbicidal action against ALOMY; format: in vivo, Alopecurus myosuroides; conditions: visual assessment about 3 weeks after treatment vs untreated controls
How it was run: as §2

VERPE [19] = assay: Pre-emergence herbicidal action against VERPE; format: in vivo, Veronica persica; conditions: Veronica persica, 504 h, dosage 80 g/ha
How it was run: as §1

ABUTH [20] = assay: Post-emergence herbicidal action against ABUTH; format: in vivo, Abutilon theophrasti; conditions: Abutilon theophrasti, 504 h, visual assessment about 3 weeks after treatment vs untreated controls
How it was run: as §2

[21] = 80 g/ha, scored visually after 3 weeks vs untreated controls (100% = plants have died, 0% = like control plants)
[22] = 20 g/ha, scored visually after 3 weeks vs untreated controls, 100% = plants have died, 0% = like control plants
[23] = 20 g/ha, scored visually after 3 weeks, 100% = plants have died, 0% = like control plants
[24] = 80 g/ha, pre-emergence, scored visually after 3 weeks vs untreated controls (100% = plants have died, 0% = like control plants)
[25] = Tripleurospermum inodorum, 504 h, dosage 20 g/ha
[26] = Setaria viridis, 504 h, dosage 20 g/ha

Cn1nnnc1NC(=O)c1ccc(C(F)(F)F)c(C(=O)NCC(F)F)c1Cl [Example 1-134]
Pre-emergence action against ABUTH (herbicidal activity) (ABUTH [1]; [21]): 90%
Post-emergence action against VERPE in % (VERPE [2]; 20 g/ha): 80%
Pre-emergence action against MATIN in % (MATIN [3]; dosage 20 g/ha): 90%
Pre-emergence action against MATIN in % (MATIN [3]; dosage 80 g/ha): 100%
Post-emergence action against VIOTR in % (VIOTR [4]; 5 g/ha): 90%
Post-emergence action against VIOTR in % (VIOTR [4]; 20 g/ha): 90%
Post-emergence action against PHBPU in % (PHBPU [5]; dosage 5 g/ha): 80%
Post-emergence action against PHBPU in % (PHBPU [5]; dosage 20 g/ha): 90%
Post-emergence action against ECHCG in % (ECHCG [6]): 90%
Post-emergence action at 20 g/ha against AMARE in % (AMARE [7]): 90%
Pre-emergence action against AMARE in % (AMARE [8]; [22]): 100%
Pre-emergence action against AMARE in % (AMARE [8]; [21]): 100%
Post-emergence action against DIGSA (DIGSA [9]): 90%
Post-emergence action against SETVI in % (SETVI [10]; dosage 5 g/ha): 90%
Post-emergence action against SETVI in % (SETVI [10]; dosage 20 g/ha): 90%
Pre-emergence action against AVEFA (AVEFA; [23]): 80%
Pre-emergence action against AVEFA in % (AVEFA; 80 g/ha, pre-emergence): 90%
Pre-emergence action against PHBPU in % (PHBPU [11]): 80%
Pre-emergence action against SETVI in % (SETVI [12]; dosage 20 g/ha): 90%
Pre-emergence action against SETVI in % (SETVI [12]; dosage 80 g/ha): 100%
Pre-emergence action against ECHCG in % (ECHCG [13]): 100%
Pre-emergence action against DIGSA in % (DIGSA [14]; dosage 20 g/ha): 90%
Pre-emergence action against DIGSA in % (DIGSA [14]; dosage 80 g/ha): 100%
Pre-emergence action against ALOMY (ALOMY [15]; [23]): 80%
Pre-emergence action against ALOMY (herbicidal activity) (ALOMY [15]; [24]): 100%
Pre-emergence action against VIOTR in % (VIOTR [16]; dosage 20 g/ha): 90%
Pre-emergence action against VIOTR in % (VIOTR [16]; dosage 80 g/ha): 100%
Pre-emergence action against LOLRI in % (LOLRI): 80%

CCn1nnnc1NC(=O)c1ccc(C(F)(F)F)c(C(=O)NCC(F)(F)F)c1Cl [Example 2-133]
Pre-emergence action against ABUTH (herbicidal activity) (ABUTH [1]; [21]): 100%
Post-emergence action against VERPE in % (VERPE [2]; 5 g/ha): 80%
Post-emergence action against VERPE in % (VERPE [2]; 20 g/ha): 80%
Pre-emergence action against MATIN in % (MATIN [3]; dosage 20 g/ha): 90%
Pre-emergence action against MATIN in % (MATIN [3]; dosage 80 g/ha): 100%
Post-emergence action against VIOTR in % (VIOTR [4]; 20 g/ha): 80%
Post-emergence action against PHBPU in % (PHBPU [5]; dosage 20 g/ha): 80%
Post-emergence action against ECHCG in % (ECHCG [6]): 80%
Post-emergence action at 20 g/ha against AMARE in % (AMARE [7]): 90%
Pre-emergence action against AMARE in % (AMARE [8]; [22]): 90%
Pre-emergence action against AMARE in % (AMARE [8]; [21]): 100%
Post-emergence action against MATIN in % (MATIN [17]; dosage 20 g/ha): 90%
Post-emergence action against SETVI in % (SETVI [10]; dosage 5 g/ha): 80%
Post-emergence action against SETVI in % (SETVI [10]; dosage 20 g/ha): 90%
Pre-emergence action against AVEFA in % (AVEFA; 80 g/ha, pre-emergence): 90%
Pre-emergence action against PHBPU in % (PHBPU [11]): 80%
Pre-emergence action against SETVI in % (SETVI [12]; dosage 20 g/ha): 100%
Pre-emergence action against SETVI in % (SETVI [12]; dosage 80 g/ha): 100%
Pre-emergence action against ECHCG in % (ECHCG [13]): 100%
Pre-emergence action against DIGSA in % (DIGSA [14]; dosage 80 g/ha): 90%
Pre-emergence action against ALOMY (herbicidal activity) (ALOMY [15]; [24]): 90%
Pre-emergence action against VIOTR in % (VIOTR [16]; dosage 80 g/ha): 90%
Post-emergence action against ALOMY in % (ALOMY [18]; dosage 20 g/ha): 80%
Pre-emergence action against LOLRI in % (LOLRI): 80%

CCn1nnnc1NC(=O)c1ccc(Br)c(C(=O)NC)c1Cl [Example 2-177]
pest or weed control at 80 g/ha (VERPE [19]): 80%
pest or weed control at 80 g/ha (ABUTH [1]; Abutilon theophrasti, 504 h, 80 g/ha, scored visually after 3 weeks vs untreated controls (100% = plants have died, 0% = like control plants)): 100%
pest or weed control at 20 g/ha (ABUTH [1]; Abutilon theophrasti, 504 h, dosage 20 g/ha, scored visually after 3 weeks vs untreated controls, 100% = plants have died, 0% = like control plants, read-out: Pre-emergence action against ABUTH (herbicidal activity in percent)): 90%
pest or weed control at 5 g/ha (ABUTH [20]; dosage 5 g/ha): 80%
pest or weed control at 20 g/ha (ABUTH [20]; dosage 20 g/ha): 90%
pest or weed control at 20 g/ha (VERPE [2]; Veronica persica, 504 h, 20 g/ha): 80%
pest or weed control at 20 g/ha (MATIN [3]; [25]): 90%
pest or weed control at 80 g/ha (MATIN [3]; Tripleurospermum inodorum, 504 h, dosage 80 g/ha): 100%
pest or weed control at 5 g/ha (VIOTR [4]; Viola tricolor, 504 h, 5 g/ha): 80%
pest or weed control at 20 g/ha (VIOTR [4]; Viola tricolor, 504 h, 20 g/ha): 100%
pest or weed control at 20 g/ha (AMARE [7]; Amaranthus retroflexus, 504 h): 100%
pest or weed control at 20 g/ha (AMARE [8]; Amaranthus retroflexus, 504 h, 20 g/ha, scored visually after 3 weeks vs untreated controls, 100% = plants have died, 0% = like control plants): 100%
pest or weed control at 80 g/ha (AMARE [8]; Amaranthus retroflexus, 504 h, 80 g/ha, scored visually after 3 weeks vs untreated controls, 100% = plants have died, 0% = like control plants): 100%
pest or weed control at 5 g/ha (MATIN [17]; Tripleurospermum inodorum, 504 h, dosage 5 g/ha): 90%
pest or weed control at 20 g/ha (MATIN [17]; [25]): 90%
pest or weed control at 5 g/ha (SETVI [10]; Setaria viridis, 504 h, dosage 5 g/ha): 90%
pest or weed control at 20 g/ha (SETVI [10]; [26]): 90%
pest or weed control at 80 g/ha (AVEFA; Avena fatua, 504 h, 80 g/ha, pre-emergence): 90%
pest or weed control at 80 g/ha (PHBPU [11]; Ipomoea purpurea, 504 h): 80%
pest or weed control at 20 g/ha (SETVI [12]; [26]): 100%
pest or weed control at 80 g/ha (SETVI [12]; Setaria viridis, 504 h, dosage 80 g/ha): 100%
pest or weed control at 80 g/ha (ECHCG [13]; Echinochloa crus-galli, 504 h): 90%
pest or weed control at 20 g/ha (DIGSA [14]; Digitaria sanguinalis, 504 h, dosage 20 g/ha): 100%
pest or weed control at 80 g/ha (DIGSA [14]; Digitaria sanguinalis, 504 h, dosage 80 g/ha): 100%
pest or weed control at 80 g/ha (ALOMY [15]; Alopecurus myosuroides, 504 h, 80 g/ha, pre-emergence, scored visually after 3 weeks vs untreated controls (100% = plants have died, 0% = like control plants)): 100%
pest or weed control at 20 g/ha (ALOMY [15]; Alopecurus myosuroides, pre-emergence, 504 h, 20 g/ha, scored visually after 3 weeks, 100% = plants have died, 0% = like control plants): 90%
pest or weed control at 20 g/ha (VIOTR [16]; Viola tricolor, 504 h, dosage 20 g/ha): 100%
pest or weed control at 80 g/ha (VIOTR [16]; Viola tricolor, 504 h, dosage 80 g/ha): 100%
pest or weed control at 5 g/ha (ALOMY [18]; Alopecurus myosuroides, 504 h, dosage 5 g/ha): 80%
pest or weed control at 20 g/ha (ALOMY [18]; Alopecurus myosuroides, 504 h, dosage 20 g/ha): 100%
pest or weed control at 80 g/ha (LOLRI; Lolium rigidum, 504 h): 90%

— patent publication US12655116B2, “Substituted isophthalic acid diamides” (Bayer Aktiengesellschaft, priority 2020, dated 2026)
